Consider one molecule from US9492471B2, “Methods of treating a disease or disorder associated with Bruton'S Tyrosine Kinase” (Celgene Avilomics Research, Inc., priority 2013, dated 2016).

Assay in all cases: HotSpot kinase profiling
Common to all, as to assay type: biochemical

Assay [1] has as its target T1, PKCzeta (Homo sapiens, UniProt Q05513).
T1 construct: purchased Reaction Biology Corp
T1 sequence (Q05513 1-592): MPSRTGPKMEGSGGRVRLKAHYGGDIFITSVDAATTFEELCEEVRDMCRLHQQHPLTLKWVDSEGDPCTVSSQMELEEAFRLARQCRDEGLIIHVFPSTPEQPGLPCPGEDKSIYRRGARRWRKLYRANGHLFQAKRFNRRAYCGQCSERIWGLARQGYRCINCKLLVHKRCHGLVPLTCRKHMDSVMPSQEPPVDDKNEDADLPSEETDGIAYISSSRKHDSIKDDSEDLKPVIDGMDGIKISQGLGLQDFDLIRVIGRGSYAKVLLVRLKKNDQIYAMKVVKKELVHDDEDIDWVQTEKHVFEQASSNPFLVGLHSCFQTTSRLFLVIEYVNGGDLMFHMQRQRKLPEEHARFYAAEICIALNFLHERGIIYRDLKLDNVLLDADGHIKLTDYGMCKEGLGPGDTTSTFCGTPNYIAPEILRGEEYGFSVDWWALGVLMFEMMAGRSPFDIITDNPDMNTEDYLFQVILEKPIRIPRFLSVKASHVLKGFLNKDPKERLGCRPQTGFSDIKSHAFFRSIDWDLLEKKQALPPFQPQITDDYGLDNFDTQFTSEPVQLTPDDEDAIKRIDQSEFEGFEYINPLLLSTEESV
The essentials:
(§1)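 Radio-isotope P81 filtration format. Substrate + required cofactors in reaction buffer, kinase added, 2 h RT. Stop, wash with 0.1% phosphoric acid, detect. % inhibition vs DMSO; mean of duplicates where repeated.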

Assay [2] concerns the target T2, NEK11 (Homo sapiens, UniProt Q8NG66).
T2 construct: purchased Reaction Biology Corp
T2 sequence (Q8NG66 1-645): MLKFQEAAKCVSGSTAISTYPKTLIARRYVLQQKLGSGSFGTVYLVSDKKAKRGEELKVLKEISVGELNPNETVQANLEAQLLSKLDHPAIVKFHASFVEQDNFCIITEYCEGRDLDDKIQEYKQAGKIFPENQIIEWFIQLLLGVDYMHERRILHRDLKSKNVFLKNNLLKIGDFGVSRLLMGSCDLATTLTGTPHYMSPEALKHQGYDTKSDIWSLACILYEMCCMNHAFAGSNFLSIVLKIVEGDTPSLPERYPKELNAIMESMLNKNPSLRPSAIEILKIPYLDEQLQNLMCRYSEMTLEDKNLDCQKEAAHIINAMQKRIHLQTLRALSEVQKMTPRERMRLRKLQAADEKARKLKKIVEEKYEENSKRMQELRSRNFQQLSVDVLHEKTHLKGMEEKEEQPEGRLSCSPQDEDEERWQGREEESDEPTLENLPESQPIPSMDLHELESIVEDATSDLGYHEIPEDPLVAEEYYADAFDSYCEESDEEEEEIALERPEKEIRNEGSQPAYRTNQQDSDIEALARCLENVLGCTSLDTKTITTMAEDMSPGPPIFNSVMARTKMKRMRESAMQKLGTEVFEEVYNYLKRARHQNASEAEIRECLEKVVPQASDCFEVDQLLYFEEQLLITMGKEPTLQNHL
A digest of the protocol: as §1

The target in assay [3] is T3, KHS/MAP4K5 (Homo sapiens, UniProt Q9Y4K4).
T3 construct: purchased Reaction Biology Corp
The essentials:
as §1

For assay [4], the target named is T4, PKCb1 (Homo sapiens, UniProt P05771).
T4 construct: purchased Reaction Biology Corp
The essentials:
as §1

Assay [5] concerns the target T5, ARAF (Homo sapiens, UniProt P10398).
T5 construct: purchased Reaction Biology Corp
T5 sequence (P10398 1-606): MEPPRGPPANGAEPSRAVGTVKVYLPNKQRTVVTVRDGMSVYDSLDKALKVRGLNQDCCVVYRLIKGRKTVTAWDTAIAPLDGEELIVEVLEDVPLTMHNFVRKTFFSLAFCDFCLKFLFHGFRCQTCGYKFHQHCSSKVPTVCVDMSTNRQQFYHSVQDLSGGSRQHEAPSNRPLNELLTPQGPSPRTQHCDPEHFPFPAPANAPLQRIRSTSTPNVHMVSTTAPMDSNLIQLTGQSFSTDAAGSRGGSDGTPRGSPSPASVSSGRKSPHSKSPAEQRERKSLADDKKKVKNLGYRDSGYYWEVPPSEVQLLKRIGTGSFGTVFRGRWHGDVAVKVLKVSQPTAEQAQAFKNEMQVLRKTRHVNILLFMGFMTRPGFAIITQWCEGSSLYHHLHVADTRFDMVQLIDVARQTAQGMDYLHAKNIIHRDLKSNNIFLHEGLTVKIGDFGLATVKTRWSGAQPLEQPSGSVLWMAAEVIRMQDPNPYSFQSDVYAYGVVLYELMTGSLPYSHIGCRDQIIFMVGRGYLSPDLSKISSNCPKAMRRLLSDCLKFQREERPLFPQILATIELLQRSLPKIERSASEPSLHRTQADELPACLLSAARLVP
The essentials: as §1

For assay [6], the target named is T6, ZAK/MLTK (Homo sapiens, UniProt Q9NYL2).
T6 construct: purchased Reaction Biology Corp
A digest of the protocol:
as §1

Assay [7] deals with T7, c-Src (Homo sapiens, UniProt P12931).
T7 construct: purchased Reaction Biology Corp
A digest of the protocol: as §1

Assay [8] deals with T8, MST3/STK24 (Homo sapiens, UniProt Q9Y6E0).
T8 construct: purchased Reaction Biology Corp
A digest of the protocol:
as §1

Where [9] appears, read: read-out: % Enzyme Activity (relative to DMSO controls) Run 1.
Where [10] appears, read: read-out: % Enzyme Activity (relative to DMSO controls) Run 2.

Like-named read-outs stand apart in the source and are kept apart here.

T6 sequence (Q9NYL2 whole entry): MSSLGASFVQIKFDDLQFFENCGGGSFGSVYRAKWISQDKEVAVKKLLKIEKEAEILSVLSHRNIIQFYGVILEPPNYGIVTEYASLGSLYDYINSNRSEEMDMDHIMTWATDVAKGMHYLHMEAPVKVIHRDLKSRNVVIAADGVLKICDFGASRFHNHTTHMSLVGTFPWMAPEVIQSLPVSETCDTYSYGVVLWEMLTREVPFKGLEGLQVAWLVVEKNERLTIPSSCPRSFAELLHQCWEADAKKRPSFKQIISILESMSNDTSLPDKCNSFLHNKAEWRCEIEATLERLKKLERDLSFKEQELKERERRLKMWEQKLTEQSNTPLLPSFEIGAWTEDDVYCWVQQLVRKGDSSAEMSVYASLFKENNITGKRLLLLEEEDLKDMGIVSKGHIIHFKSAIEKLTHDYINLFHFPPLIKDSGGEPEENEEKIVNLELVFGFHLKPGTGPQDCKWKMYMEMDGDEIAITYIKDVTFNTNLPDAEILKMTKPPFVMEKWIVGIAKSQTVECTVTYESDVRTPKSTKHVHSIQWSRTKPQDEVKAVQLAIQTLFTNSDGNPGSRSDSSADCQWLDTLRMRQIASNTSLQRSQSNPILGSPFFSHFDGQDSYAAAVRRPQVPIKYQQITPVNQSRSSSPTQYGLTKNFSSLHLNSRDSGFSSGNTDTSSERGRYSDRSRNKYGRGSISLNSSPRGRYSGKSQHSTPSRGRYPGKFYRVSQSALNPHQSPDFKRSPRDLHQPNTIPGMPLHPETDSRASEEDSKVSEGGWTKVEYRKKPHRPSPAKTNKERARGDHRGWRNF
T3 sequence (Q9Y4K4 whole entry): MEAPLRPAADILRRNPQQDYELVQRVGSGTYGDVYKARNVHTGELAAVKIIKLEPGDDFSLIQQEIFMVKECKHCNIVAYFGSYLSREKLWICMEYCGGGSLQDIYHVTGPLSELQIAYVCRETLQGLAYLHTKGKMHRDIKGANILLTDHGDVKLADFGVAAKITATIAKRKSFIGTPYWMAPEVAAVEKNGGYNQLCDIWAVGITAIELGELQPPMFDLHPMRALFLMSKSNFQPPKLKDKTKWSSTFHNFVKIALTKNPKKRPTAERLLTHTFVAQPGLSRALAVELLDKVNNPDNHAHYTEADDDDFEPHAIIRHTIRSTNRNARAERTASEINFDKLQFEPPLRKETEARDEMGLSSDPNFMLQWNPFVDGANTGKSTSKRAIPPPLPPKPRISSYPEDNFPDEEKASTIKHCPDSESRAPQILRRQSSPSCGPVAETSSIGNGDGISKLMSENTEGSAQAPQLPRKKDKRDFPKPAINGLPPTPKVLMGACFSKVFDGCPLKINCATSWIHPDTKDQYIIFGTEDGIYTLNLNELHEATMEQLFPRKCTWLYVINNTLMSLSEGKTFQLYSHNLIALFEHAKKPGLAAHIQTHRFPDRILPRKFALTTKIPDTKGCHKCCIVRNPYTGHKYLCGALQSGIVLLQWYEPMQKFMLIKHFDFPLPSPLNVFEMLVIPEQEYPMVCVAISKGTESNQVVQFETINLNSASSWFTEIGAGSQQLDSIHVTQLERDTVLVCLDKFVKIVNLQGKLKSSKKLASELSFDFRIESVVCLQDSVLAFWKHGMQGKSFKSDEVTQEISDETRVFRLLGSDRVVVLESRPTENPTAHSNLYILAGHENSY
T7 sequence (P12931 whole entry): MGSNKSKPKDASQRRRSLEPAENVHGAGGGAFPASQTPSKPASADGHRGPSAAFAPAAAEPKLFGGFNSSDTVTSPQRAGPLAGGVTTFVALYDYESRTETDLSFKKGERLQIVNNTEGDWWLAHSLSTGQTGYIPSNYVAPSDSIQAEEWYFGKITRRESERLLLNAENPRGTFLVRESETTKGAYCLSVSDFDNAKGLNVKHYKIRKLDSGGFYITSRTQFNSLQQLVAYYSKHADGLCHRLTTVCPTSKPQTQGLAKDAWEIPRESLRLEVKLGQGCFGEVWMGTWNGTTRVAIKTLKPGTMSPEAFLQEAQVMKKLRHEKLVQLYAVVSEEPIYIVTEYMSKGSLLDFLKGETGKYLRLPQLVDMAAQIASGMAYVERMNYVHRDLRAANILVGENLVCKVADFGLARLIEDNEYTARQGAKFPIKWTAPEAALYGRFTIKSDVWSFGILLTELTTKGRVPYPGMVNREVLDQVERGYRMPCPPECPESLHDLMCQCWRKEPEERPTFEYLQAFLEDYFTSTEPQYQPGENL
T4 sequence (P05771 whole entry): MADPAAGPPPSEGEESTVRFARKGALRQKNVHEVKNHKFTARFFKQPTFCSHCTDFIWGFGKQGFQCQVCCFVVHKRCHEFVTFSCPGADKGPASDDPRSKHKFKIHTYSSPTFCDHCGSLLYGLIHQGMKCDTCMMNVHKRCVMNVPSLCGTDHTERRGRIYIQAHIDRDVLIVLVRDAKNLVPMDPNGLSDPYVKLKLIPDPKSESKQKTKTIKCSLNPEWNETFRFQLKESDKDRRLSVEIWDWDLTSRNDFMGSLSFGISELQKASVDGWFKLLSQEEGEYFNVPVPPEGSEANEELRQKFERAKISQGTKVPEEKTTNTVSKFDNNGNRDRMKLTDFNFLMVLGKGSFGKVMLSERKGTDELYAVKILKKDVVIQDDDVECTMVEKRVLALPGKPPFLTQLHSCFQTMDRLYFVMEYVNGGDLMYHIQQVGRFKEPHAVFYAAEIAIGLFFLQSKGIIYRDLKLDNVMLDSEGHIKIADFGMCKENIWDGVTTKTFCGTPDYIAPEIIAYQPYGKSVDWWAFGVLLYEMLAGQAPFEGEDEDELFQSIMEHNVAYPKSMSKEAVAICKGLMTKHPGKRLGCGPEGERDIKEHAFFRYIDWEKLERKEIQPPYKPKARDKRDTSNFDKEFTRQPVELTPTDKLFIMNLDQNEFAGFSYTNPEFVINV
T8 sequence (Q9Y6E0 whole entry): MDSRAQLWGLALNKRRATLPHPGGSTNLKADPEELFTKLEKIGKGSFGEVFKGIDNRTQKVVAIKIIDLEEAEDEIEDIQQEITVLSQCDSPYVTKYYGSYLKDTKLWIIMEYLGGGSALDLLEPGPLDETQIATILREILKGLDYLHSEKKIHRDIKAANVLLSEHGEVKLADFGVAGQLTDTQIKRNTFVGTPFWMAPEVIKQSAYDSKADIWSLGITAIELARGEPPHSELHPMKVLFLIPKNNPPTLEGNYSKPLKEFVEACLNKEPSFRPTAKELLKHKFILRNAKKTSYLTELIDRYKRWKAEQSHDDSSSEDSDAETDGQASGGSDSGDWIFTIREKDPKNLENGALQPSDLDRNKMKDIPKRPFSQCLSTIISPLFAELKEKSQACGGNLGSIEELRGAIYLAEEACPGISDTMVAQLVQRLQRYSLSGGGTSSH

On to `C=CC(=O)Nc1cccc(Nc2nc(Nc3ccc(OCCOC)c(F)c3)ncc2F)c1` [Compound 2], for which the inhibition at 3 µM was 2.52% in assay [1]; 7.32% in assay [2]; 7.15% in assay [3]; 27.6% in assay [4]; -1.47% in assay [5]; 15.7% in assay [6]. Also, the values for the inhibition at 3 µM in assay [7] and in assay [8] were 72% and 14.5%, respectively. For the same molecule, the remaining activity at 3 µM in assay [1] (setting [9]) amounted to 99.8%; in assay [1] (setting [10]) it was 95.2%; in assay [2] (setting [9]), 92.5%; in assay [2] (setting [10]) it was 92.8%; in assay [3] (setting [9]), 94.9%; in assay [3] (setting [10]) it was 90.8%. For the same molecule, the remaining activity at 3 µM came out at 72.7% in assay [4] (setting [9]); 72.1% in assay [4] (setting [10]); 103% in assay [5] (setting [9]); 100% in assay [5] (setting [10]); 83.7% in assay [6] (setting [9]); 85% in assay [6] (setting [10]). For the same molecule, the remaining activity at 3 µM in assay [7] (setting [9]) came to 28.2%; in assay [7] (setting [10]) it was 27.9%; in assay [8] (setting [9]) it was 86.6%; in assay [8] (setting [10]), 84.5%.

One may read the inhibition as the drop in the measured response relative to a control, in per cent.
